Data from patent US20030148518A1, “Method for mass propogation of podophyllum hexandrum royle using embryo culture technique” (priority 2001, published 2003).

Tests used:
[1] = tested on: Podophyllum hexandrum zygotic embryos; experiment: Germination of excised zygotic embryos cultured on different media supplemented with Gibberellic acid; details: 2.5 μM Gibberellic acid in different media (B5, MS, WPM); excised zygotic embryos of different regimes
Experimental: (§1) To describe in detail, the method comprises collection of mature pods of P. hexandrum Royle from their natural habitats in the Western Himalayas at an altitude ranging from 2700 m-3500 m above mean sea level during the last week of August and first week of September. Immediately after collection, the seeds were separated from the pulp. Prior to disinfection with 0.1% Bavistin and streptomycin sulphate (0.1%) for 15 minutes, followed by a thorough washing of seeds. After a 1 minute dip in 70% alcohol and surface sterilization in 0.1% mercuric chloride for 7 minutes, all traces of mercuric chloride were finally washed off by 4-5 rinses in sterile distilled water. The surface sterilized seeds were then dissected by a sharp excision with a scalpel blade at the base of the microplyar lobe and embryos were carefully squeezed out of their micropylar groove. The embryos were cultured on B-5 (Gamborg et al., 1968) medium supplemented with 3% sucrose of pH 5.8 adjusted with 1N KOH and HCl prior to the addition of agar (0.8%) and were finally sterilized at […] for 20 minutes. All the cultures were maintained in this medium for one week at 25±2° C. in dark for embryo germination. […]

[2] = tested on: Podophyllum hexandrum emblings; experiment: True leaf emergence after embling development and field transfer; details: media supplemented with 2.5 μM Gibberellic acid; after 12 weeks of field transfer
Experimental: as §1

C=C1C[C@]23C[C@@]1(O)CC[C@H]2[C@@]12C=C[C@H](O)[C@@](C)(C(=O)O1)[C@H]2[C@@H]3C(=O)O [Gibberellic acid] was tested, and the embryo germination [1] was “Germination was evoked in all the media” and the true leaf emergence [2] was “no true leaf emergence was recorded”.
